{"source": "patent US7230157B1", "about": "“Chemical inducible promoter used to obtain transgenic plants with a silent marker and organisms and cells and methods of using same for screening for mutations” (The Rockefeller University, priority 1998, dated 2007)", "key": {"[1]": {"tested_on": "Arabidopsis root explants", "experiment": "Regeneration of Arabidopsis root explants transfected with XVE-CKI1", "details": "MIC medium with 5 μM 17-β-estradiol"}, "tobacco root cells": {"tested_on": "tobacco root cells", "experiment": "Shoot regeneration from tobacco root cells transformed with XVE-CKI1", "type": "cell-based", "description": "The XVE-CKI1 vector was also used to transform tobacco root cells. […] The explants were transferred to fresh MBC medium (with or without the inducer) every two weeks. […] The explants grown in the presence of inducer formed green callus. […] This experiment used the same number of root explants with inducer as without inducer. Since 65 calli formed with inducer and only 49 without inducer, overexpression of CKI1 may also increase the efficiency of callus formation."}, "tobacco leaf disks": {"tested_on": "tobacco leaf disks", "experiment": "Shoot regeneration from tobacco leaf disks transfected with XVE-CKI1", "type": "cell-based", "details": "no externally applied plant hormones", "description": "In addition to the GVG-ipt, pER8-CKI1 (XVE-CKI1) has been used to transfect tobacco leaf disks."}, "tobacco leaf discs": {"tested_on": "tobacco leaf discs", "experiment": "DEX-dependent regeneration and Luc activity of tobacco leaf discs transfected with pTA7002G/ipt/luc", "type": "cell-based, Nicotiana tabacum", "details": "for Percentage of LUC^+ regenerants / Total number of regenerants per 28 explants: Tobacco", "method": "Nicotiana tabacum seeds cultivar SR1 were surface sterilized in 30% commercial bleach containing 0.02% Tween 20 for 10 minutes and washed five times with sterile water. Plants were grown in a tissue culture room at 22° C. at 16 hour light and 8 hour dark cycles. Tobacco transformation was essentially as described by Horsch et al. (1985) and Klee et al. (1987). Leaf discs were prepared from young leaves of four week old plants and the explants were cultured for two days on MB medium (MS salts, B5 vitamins, 20 g/L sucrose, 20 mg/L acetosyringone, 0.2% phytagel, pH 5.7). […] After 20 to 40 days of culturing, regenerated shoots were excised from explants and cultured on MS medium containing IAA to induce root regeneration.\n(§1) The explants were transferred to fresh medium every two weeks to maintain constant culture conditions.\n(§2) The transformation cassette pTA7002G/ipt/luc (FIG. 12) contained a luc gene under the control of the CaMV 35S promoter (Millar et al., 1992; Benfey and Chua, 1990). Luc activity was measured in order to estimate the number of transgenic shoots using the video imaging system described by Michelet and Chua (1996). Measurements were integrated over 5 minutes and the corresponding background was subtracted from the images (FIGS. 9A-F). Approximately 50% of the regenerants expressed the luc gene (Table 2).\nTo further characterize the transformation system, we examined the effects of the duration of induction as well as the effects of exogenously applied phytohormones. Time course experiments were performed to determine whether the specificity of the induction of the ipt gene decreases over time due to overproduction and diffusion of cytokinin, which could trigger regeneration events in neighboring, non-transformed cells. […] No significant difference in the percentage of regenerants with detectable Luc activity was found over time. After 20 days, 46% of regenerants had detectable Luc activity and after both 30 and 40 days 53% of regenerants had detectable Luc activity. […] Similar results have been obtained with lettuce.\nNo significant difference in luciferase activity occurred at different auxin concentrations. At 1.0 mg/mL auxin 45% of regenerants had detectable Luc activity, at 1.5 mg/mL auxin 58% of regenerants had detectable Luc activity, and at 2.0 mg/mL auxin 47% of regenerants had detectable Luc activity."}, "lettuce leaf disks": {"tested_on": "lettuce leaf disks", "experiment": "DEX-dependent regeneration and Luc activity of lettuce leaf disks transfected with pTA7002G/ipt/luc", "type": "cell-based, Lactuca sativa", "details": "DEX 10 μM", "method": "Sterilized lettuce […] (Lactuca sativa var. Great Lake #118) were germinated and the seedlings were grown as described for tobacco. Transformation of lettuce leaf discs was performed as described by Curtis et al. (1996) with the exception that cytokinin was omitted from the culture media.\nas §1, §2"}}}
{"compound": "C[C@]12CC[C@@H]3c4ccc(O)cc4CC[C@H]3[C@@H]1CC[C@@H]2O", "note": "[17-β-estradiol]", "values": [{"measurement": "time of culture until small dark green callus appears", "setting": "[1]", "result": "about 10 days"}, {"measurement": "time of culture until small shoots appear", "setting": "[1]", "result": "about 15 days"}, {"measurement": "time of shoot initiation after induction", "setting": "tobacco root cells; 5 μM 17-β-estradiol", "result": "40 to 50", "unit": "days"}, {"measurement": "white/brown calli that became green and produced shoots", "setting": "tobacco root cells; MBC medium with 5 μM 17-β-estradiol", "result": "13 out of 65"}, {"measurement": "time of shoot initiation after induction", "setting": "tobacco leaf disks", "result": "25 to 35", "unit": "days"}]}
{"compound": "auxin", "values": [{"measurement": "regenerants with detectable Luc activity", "setting": "tobacco leaf discs; 10 μM DEX, 40 days", "result": 45, "unit": "%"}, {"measurement": "regenerants with detectable Luc activity", "setting": "tobacco leaf discs; 1.5 mg/mL auxin and 10 μM DEX, 40 days", "result": 58, "unit": "%"}, {"measurement": "regenerants with detectable Luc activity", "setting": "tobacco leaf discs; 2.0 mg/mL auxin and 10 μM DEX, 40 days", "result": 47, "unit": "%"}]}
{"compound": "C[C@@H]1C[C@H]2[C@@H]3CCC4=CC(=O)C=C[C@]4(C)[C@@]3(F)[C@@H](O)C[C@]2(C)[C@@]1(O)C(=O)CO", "note": "[DEX, dexamethasone]", "values": [{"measurement": "regenerants with detectable Luc activity", "setting": "tobacco leaf discs; 10 μM DEX, after 20 days of induction, 54 regenerants", "result": 46, "unit": "%"}, {"measurement": "regenerants with detectable Luc activity", "setting": "tobacco leaf discs; 10 μM DEX, after 30 days of induction", "result": 53, "unit": "%"}, {"measurement": "regenerants with detectable Luc activity", "setting": "tobacco leaf discs; 10 μM DEX, after 40 days of induction", "result": 53, "unit": "%"}, {"measurement": "Percentage of LUC^+ regenerants", "setting": "tobacco leaf discs; DEX 0.1 μM", "result": 29}, {"measurement": "Total number of regenerants per 28 explants", "setting": "tobacco leaf discs; DEX 0.1 μM", "result": 139}, {"measurement": "Percentage of LUC^+ regenerants", "setting": "tobacco leaf discs; DEX 1 μM", "result": 44}, {"measurement": "Total number of regenerants per 28 explants", "setting": "tobacco leaf discs; DEX 1 μM", "result": 129}, {"measurement": "Percentage of LUC^+ regenerants", "setting": "tobacco leaf discs; DEX 10 μM", "result": 49}, {"measurement": "Percentage of LUC^+ regenerants", "setting": "lettuce leaf disks", "result": 46}, {"measurement": "Total number of regenerants per 28 explants", "setting": "lettuce leaf disks", "result": 198}]}
